Measured values reported in patent publication US20250222045A1, “BIFIDOBACTERIUM LONGUM SUBSP. INFANTIS, MICROBIAL AGENT AND USE THEREOF” (GUANGZHOU JIYAN COSMETICS TECHNOLOGY CO., LTD., priority 2024, published 2025).

Assays:
[1] = tested on: CPD; test: DNA damage repair on UVB-irradiated 3D epidermal skin model, CPD immunohistochemistry; format: cell-based; settings: Filtrate 5%, Lysate 5%, Filtrate + lysate 5%, Retinol 0.1%, Bifida ferment lysate 5%; for CPD Positive cell Rate (%): BC 0.00%, NC 72.14%, smaller values are better; for CPD fluorescence intensity, Down-regulation Rate: vs NC
Description: <1> According to test groups, models were transferred into 6-well plates (added with 0.9 mL of an EpiGrowth culture solution of corresponding groups in advance), and numbers of the test groups were marked on the 6-well plates.
<2> UVB irradiation (a radiation dosage was 600 mJ/cm^2) was performed on the groups requiring UVB irradiation according to the test groups (as shown in TABLE 40). After the irradiation, a sample working solution was evenly distributed on surfaces of the models, and continued to be incubated in a CO2 incubator (37° C., 5% CO2) for 24 h.
<3> After incubation was finished, test substances remaining on surfaces of the models were cleaned with sterile PBS, and residual liquid inside and outside the models was wiped off with a sterile cotton swab.
The models for detection were fixed using 4% paraformaldehyde. After 24 h of fixation, immunohistochemical detection was performed, photographs were taken under a microscope and observed, and pictures were collected and analyzed.
Inhibition rate/down-regulation rate (%)=(negative control group−sample)/negative control group×100%
GraphPad Prism was applied for plotting, and results were expressed as Mean±SD. Comparison between the groups was statistically analyzed using t-test. Statistical analysis was two-tailed. P<0.05 is considered to have a significant difference, and P<0.01 is considered to have an extremely significant difference.
(1) CPD: When a body is exposed to exogenous UV radiation, DNA damage may occur, and this damage may induce body aging. If such DNA damage is not repaired in time, symptoms such as aging of the body may occur.

[2] = tested on: 3D epidermal skin model (EpiKuits®); test: Epidermal atrophy on UVB-irradiated 3D epidermal skin model, tissue morphology H&E, sunburn cells; format: cell-based; settings: Filtrate 5%, Lysate 5%, Filtrate + lysate 5%, Retinol 0.1%, Bifida ferment lysate 5%
Description: [table] <1> According to test groups, models were transferred into 6-well plates (added with 0.9 mL of an EpiGrowth culture solution of corresponding groups in advance), and numbers of the test groups were marked on the 6-well plates. <2> UVB irradiation (a radiation dosage was 600 mJ/cm^2) was performed on the groups requiring UVB irradiation according to the test groups (as shown in TABLE 40). […] <3> After incubation was finished, test substances remaining on surfaces of the models were cleaned with sterile PBS, and residual liquid inside and outside the models was wiped off with a sterile cotton swab. The models for detection of tissue morphology were fixed using 4% paraformaldehyde. After 24 h of fixation, H&E staining detection was performed, photographs were taken under a microscope and observed, and pictures were collected and analyzed. Inhibition rate/down-regulation rate (%)=(negative control group−sample)/negative control group×100% GraphPad Prism was applied for plotting, and results were expressed as Mean±SD. Comparison between the groups was statistically analyzed using t-test. Statistical analysis was two-tailed. P<0.05 is considered to have a significant difference, and P<0.01 is considered to have an extremely significant difference. (2) Epidermal atrophy: Tissue morphology is physiological structure analysis of appearance of tissues after HE staining. The ability of the test substance to resist UVB can be evaluated by analyzing thickness changes of epidermis and growth of four layers of cells on the surface after use of the test substance.

[3] = tested on: collagen fiber; test: Excised skin tissues, combined UVA and UVB irradiation: collagen fiber (Masson staining); settings: ex vivo skin, 0.1%
Description: (§1) Tissue treatment: Freshly obtained skin tissues were immersed into 75% alcohol to be cleaned for 30 s, and then cleaned in a sterile PBS buffer solution for three times. After the cleaning was finished, the skin was cut into tissue blocks of 24±2 mm^2, with the epidermis facing upwards and the dermis facing downwards, and put into culture moulds; and then the culture moulds were transferred into 6-well plates, with each well being added with 3.7 mL of the culture solution, and cultured in the CO2 incubator (37° C., 5% CO2), with the solution being changed every day.
(§2) Dosing: After the excised skin tissues were cultured for 2 days, irradiation and dosing were started with reference to test groups and corresponding treatment conditions in the table. Irradiation dosages were UVA (30 J/cm^2) and UVB (50 mJ/cm^2). The irradiation was continuously performed for 4 days. […]
Detection of collagen fiber: the skin tissues having undergone the dosing were fixed using 4% paraformaldehyde. […] Slicing result was recovered, photographed using a microscope, and analyzed using Image-Pro Plus image processing software. […]
(§3) Statistical analysis of results: GraphPad Prism was applied for plotting, and results were expressed as Mean±SD. Comparison between the groups was statistically analyzed using t-test. […]

[4] = tested on: hyaluronic acid; test: Excised skin tissues, combined UVA and UVB irradiation: hyaluronic acid (immunofluorescence); settings: ex vivo skin, 0.1%
Description: as §1
as §2, with “days. After each time of irradiation was completed, the culture solution was replaced with a fresh culture solution, and a dosing treatment was performed. The positive control (VC+VE) was dosed below a liquid surface, and the test sample was does on a surface, with each group being in triplicate.” for “days.”
as §3

[5] = tested on: elastin; test: Excised skin tissues, combined UVA and UVB irradiation: elastin (Victoria Blue staining); settings: ex vivo skin, 0.1%
Description: as §1
as §2, with “days. After each time of irradiation was completed, the culture solution was replaced with a fresh culture solution, and a dosing treatment was performed. The positive control (VC+VE) was dosed below a liquid surface, and the test sample was does on a surface, with each group being in triplicate.” for “days.”
as §3

[6] = tested on: type III collagen; test: Excised skin tissues, combined UVA and UVB irradiation: type III collagen (IHC); settings: ex vivo skin, 0.1%
Description: as §1
as §2, with “days. After each time of irradiation was completed, the culture solution was replaced with a fresh culture solution, and a dosing treatment was performed. The positive control (VC+VE) was dosed below a liquid surface, and the test sample was does on a surface, with each group being in triplicate.” for “days.”
as §3

[7] = tested on: type IV collagen; test: Excised skin tissues, combined UVA and UVB irradiation: type IV collagen (IHC); settings: ex vivo skin, 0.1%
Description: as §1
as §2, with “days. After each time of irradiation was completed, the culture solution was replaced with a fresh culture solution, and a dosing treatment was performed. The positive control (VC+VE) was dosed below a liquid surface, and the test sample was does on a surface, with each group being in triplicate.” for “days.”
as §3

[8] = tested on: type XVII collagen; test: Excised skin tissues, combined UVA and UVB irradiation: type XVII collagen (IHC); settings: ex vivo skin, 0.1%
Description: as §1
as §2, with “days. After each time of irradiation was completed, the culture solution was replaced with a fresh culture solution, and a dosing treatment was performed. The positive control (VC+VE) was dosed below a liquid surface, and the test sample was does on a surface, with each group being in triplicate.” for “days.”
as §3

[9] = tested on: Keratinocyte; test: Cell scratch test, keratinocyte cell mobility; format: cell-based; settings: Filtrate 0.3125%, Lysate 0.5%, Filtrate + lysate 0.0781%, Madecassoside 0.625 mg/mL, B5 1.25 mg/mL
Source text: Cell migration capability is an important capability of repairing after tissue damage. After the tissue damage, the body will initiate repair of a damaged part, including enhancement of longitudinal cell proliferation capability and lateral crawling and migration of cells in surrounding parts of the damage to the damaged part. Cells cover the damaged part by crawling and migration.
Cell inoculation: After resuscitation of cells, when a plating rate reached about 60%, the cells were inoculated in 6-well plates, and incubated overnight in a CO2 incubator (37° C., 5% CO2).
Dosing: According to test groups in TABLE 9, when the plating rate of the cells in the 6-well plates reached about 70%˜80%, dosing was performed for the groups respectively, with each group in triplicate. The blank control group was added with 2 mL of a culture solution per well, the positive control group was added with 2 mL of an EGF-containing culture solution per well, and the sample group was added with 2 mL of a test sample-containing culture solution at corresponding concentration per well. After the dosing was completed, the 6-well plates continued to be cultured in the CO2 incubator (37° C., 5% CO2) for 24 h. […]
Statistical analysis of results: GraphPad Prism was applied for plotting, and results were expressed as Mean±sD. Comparison between the groups was statistically analyzed using t-test. […]

[10] = tested on: Claudin-1 gene; test: Keratinocyte gene expression PCR: Claudin-1; format: cell-based, human; settings: keratinocytes (HaCaT), 24 h, 2^−ΔΔCT, BC=1.00; PC VE 0.05%, Filtrate 0.3125%, Lysate 0.5%, Filtrate + lysate 0.0781%, Madecassoside 0.625 mg/mL, CLR lactic acid bacteria 0.5%
Description: Cell inoculation: After resuscitation of the cells, when the plating rate reached about 60%, the cells were inoculated in the 6-well plates, and incubated overnight in the CO2 incubator (37° C., 5% CO2).
Dosing: According to test groups in TABLE 11 to TABLE 17, when the plating rate of the cells in the 6-well plates reached about 40%˜60%, dosing was performed for the groups respectively, with each group in triplicate. The blank control group was added with 2 mL of the culture solution per well, the positive control group was added with 2 mL of a VE-containing culture solution per well, and the sample group was added with 2 mL of the test sample-containing culture solution at a corresponding concentration per well. After the dosing was completed, the 6-well plates were cultured in the CO2 incubator (37° C., 5% CO2) for 24 h. […]
Detection of gene expression: RNA was extracted and subjected to reverse transcription to cDNA to undergo fluorescence quantitative PCR detection, and result was calculated by a 2^−ΔΔCT method.
as §3

[11] = tested on: 3D epidermal skin model (EpiKutis®); test: SLS-stimulated 3D epidermal skin model (EpiKutis), tissue morphology H&E; format: cell-based; settings: 0.1% SLS 30 min, then 24 h, filtrate 5%, lysate 5%, combination 5%, madecassoside 0.625 mg/mL, PC WY14643, FIG. 19
Source text: Tissue morphology: Tissue morphology is microscopic physiological structure analysis of tissues after HE staining. Through the tissue morphology of the model, changes in the skin barrier under different treatment conditions can be seen, for example, after SLS damage, the skin barrier becomes loose, thickness of a living cell layer decreases, and such damage can be ameliorated after treatment with active substances.
1) Formulation of 0.1% SLS working solution: 0.006 g of SLS was weighed and dissolved in 6 mL of a PBS solution, filtered by 0.22 μm, and formulated into the 0.1% SLS working solution for later use.
2) Formulation of working solution of positive control group (50 μM WY14643): 10 μL of 30 mM WY14643 mother liquor was sucked and dissolved in 6 mL of the culture solution to be formulated into 50 μM WY14643. […]
The models for detection of tissue morphology were fixed using 4% paraformaldehyde. After 24 h of fixation, H&E staining detection was performed, photographs were taken under a microscope and observed, and pictures were collected and analyzed.
as §3

[12] = 30 J/cm^2 UVA + 50 mJ/cm^2 UVB, IHC

Compound: CC1=C(/C=C/C(C)=C/C=C/C(C)=C/CO)C(C)(C)CCC1 [Retinol]
- CPD Positive cell Rate (%) ([1]; EpiKutis 3D epidermal model, UVB 600 mJ/cm^2, then 24 h, PC WY14643 50 μM): 58.31%
- CPD Positive cell Rate (%) ([1]; EpiKutis 3D epidermal model, UVB 600 mJ/cm^2, then 24 h, PC WY14643 50 μM, listed as retinol): 58.31%
- CPD fluorescence intensity, IOD Mean ([1]; EpiKutis 3D epidermal model, UVB 600 mJ/cm^2, then 24 h, NC 227349.69, PC WY14643 50 μM): 20503.43
- CPD fluorescence intensity, Down-regulation Rate [1]: 90.98%
- CPD fluorescence intensity, Down-regulation Rate ([1]; listed as retinol): 90.98%
- Sunburn cells ([2]; EpiKutis 3D epidermal model, UVB 600 mJ/cm^2, then 24 h, H&E, BC 0, NC 10, WY14643 50 μM): 0
- Sunburn cells, Inhibition Rate ([2]; vs NC): 100%
- Collagen fiber Relative Area Mean ([3]; 30 J/cm^2 UVA + 50 mJ/cm^2 UVB, Masson staining): 0.96
- Collagen fiber Increase Rate ([3]; UVA + UVB, vs negative control): 50.00%
- Hyaluronic acid Relative IOD Mean ([4]; 30 J/cm^2 UVA + 50 mJ/cm^2 UVB, IF): 0.69
- Hyaluronic acid Increase Rate ([4]; UVA + UVB, vs negative control): 56.82%
- Elastin Relative IOD Mean ([5]; 30 J/cm^2 UVA + 50 mJ/cm^2 UVB, Victoria staining): 1.19
- Elastin Increase Rate ([5]; UVA + UVB, vs negative control): 260.61%
- Type III collagen Relative IOD Mean [6, 12]: 0.76
- Type III collagen Increase Rate ([6]; UVA + UVB, vs negative control): 28.81%
- Type IV collagen Relative IOD/area Mean [7, 12]: 0.76
- Type IV collagen Increase Rate ([7]; UVA + UVB, vs negative control): 26.67%
- Type XVII collagen Relative IOD Mean [8, 12]: 0.69
- Type XVII collagen Increase Rate ([8]; UVA + UVB, vs negative control): 176.00%

Compound: Madecassoside
- Relative Mobility Mean ([9]; keratinocytes, dosed 24 h, 24 h after scratching, BC=1.00, PC EGF 1 ng/mL): 1.02
- Relative mobility, Increase Rate ([9]; vs BC): 2.00%
- Claudin-1 gene expression, Mean [10]: 0.96
- Tissue morphology (H&E) compared with the NC group [11]: the phenomenon of living cell damage is obviously ameliorated
